Assay results reported in ChEMBL document CHEMBL5107972 (RSC Med Chem, 2022).
In brackets after ≈: the same amount, converted by molar mass. Activity calls are given as the source filed them. The calls are words filed in the database; no cut-off is given here.

Experiments:
[1] = test system: Mycobacterium tuberculosis; assay: Antitubercular activity against Mycobacterium tuberculosis H37Rv ATCC 27294 assessed as inhibition of bacterial growth incubated for 7 days by Presto blue resazurin microtiter plate assay; assay type: functional; details: H37Rv ATCC 27294, 168 h, time 7 day
[2] = test system: Staphylococcus aureus; assay: Antibacterial activity against Staphylococcus aureus ATCC 29213 assessed as inhibition of bacterial growth incubated for 16 to 18 hrs by CLSI based microdilution method; assay type: functional; details: time 16-18 hrs
[3] = test system: Mycobacterium tuberculosis; assay: Bactericidal activity against Mycobacterium tuberculosis H37Rv ATCC 27294 assessed as reduction in colony formation at 1 to 10 times of MIC incubated for 6 to 7 days by time-kill assay; assay type: functional, organism-based; details: time 6-7 day

| Structure (SMILES) | MIC [1] [mg/L] | MIC [2] [mg/L] | Activity [3] |
| --- | --- | --- | --- |
| CC(=O)c1cccc(-n2cc(CSc3nc(=O)c4cc(Cl)cc([N+](=O)[O-])c4s3)nn2)c1 | 32 (≈ 67.5 µM) | ≥ 64 | – |
| Cc1ccc(-n2cc(CSc3nc(=O)c4cc(Cl)cc([N+](=O)[O-])c4s3)nn2)cc1 | 8 (≈ 17.9 µM) | ≥ 64 | – |
| NS(=O)(=O)c1ccc(-n2cc(CSc3nc(=O)c4cc(Cl)cc([N+](=O)[O-])c4s3)nn2)cc1 | > 64 | ≥ 64 | – |
| O=c1nc(SCc2cn(-c3ccc(N4CCCCC4)cc3)nn2)sc2c([N+](=O)[O-])cc(Cl)cc12 | 64 (≈ 124 µM) | ≥ 64 | – |
| O=c1nc(SCc2cn(-c3ccc(F)cc3)nn2)sc2c([N+](=O)[O-])cc(Cl)cc12 | 8 (≈ 17.8 µM) | ≥ 64 | – |
| COc1ccc(-n2cc(CSc3nc(=O)c4cc(Cl)cc([N+](=O)[O-])c4s3)nn2)cc1OC | 32 (≈ 65 µM) | ≥ 64 | – |
| O=C(O)c1cccc(-n2cc(CSc3nc(=O)c4cc(Cl)cc([N+](=O)[O-])c4s3)nn2)c1 | > 64 | ≥ 64 | – |
| O=c1ccc2cc(-n3cc(CSc4nc(=O)c5cc(Cl)cc([N+](=O)[O-])c5s4)nn3)ccc2o1 | 32 (≈ 64 µM) | ≥ 64 | – |
| COc1cc(-n2cc(CSc3nc(=O)c4cc(Cl)cc([N+](=O)[O-])c4s3)nn2)cc(OC)c1OC | 64 (≈ 123 µM) | ≥ 64 | – |
| NS(=O)(=O)c1cccc(-n2cc(CSc3nc(=O)c4cc(Cl)cc([N+](=O)[O-])c4s3)nn2)c1 | > 64 | ≥ 64 | – |
| O=c1nc(SCc2cn(-c3ccc(F)c(F)c3)nn2)sc2c([N+](=O)[O-])cc(Cl)cc12 | 8 (≈ 17.1 µM) | ≥ 64 | – |
| CO[C@H]1/C=C/O[C@@]2(C)Oc3c(C)c(O)c4c(O)c(c(/C=N/N5CCN(C)CC5)c(O)c4c3C2=O)NC(=O)/C(C)=C\C=C\[C@H](C)[C@H](O)[C@@H](C)[C@@H](O)[C@@H](C)[C@H](OC(C)=O)[C@@H]1C [RIFAMPIN] | 0.06 (≈ 0.0729 µM) | – | Active |
| O=c1nc(SCc2cn(-c3ccc(N4CCCCC4)c(F)c3)nn2)sc2c([N+](=O)[O-])cc(Cl)cc12 | 64 (≈ 120 µM) | ≥ 64 | – |
| O=c1nc(SCc2cn(-c3ccc([N+](=O)[O-])cc3)nn2)sc2c([N+](=O)[O-])cc(Cl)cc12 | 16 (≈ 33.6 µM) | ≥ 64 | – |
| O=c1nc(SCc2cn(-c3ccc(Oc4ccccc4)cc3)nn2)sc2c([N+](=O)[O-])cc(Cl)cc12 | 32 (≈ 61.1 µM) | ≥ 64 | – |
| CCCCCCOc1ccc(-n2cc(CSc3nc(=O)c4cc(Cl)cc([N+](=O)[O-])c4s3)nn2)cc1 | 8 (≈ 15 µM) | ≥ 64 | – |
| O=c1nc(SCc2cn(-c3cccc(F)c3)nn2)sc2c([N+](=O)[O-])cc(Cl)cc12 | 8 (≈ 17.8 µM) | ≥ 64 | – |
| O=c1nc(SCc2cn(-c3ccc4ccccc4c3)nn2)sc2c([N+](=O)[O-])cc(Cl)cc12 | 64 (≈ 133 µM) | ≥ 64 | – |
| O=C(O)c1ccc(-n2cc(CSc3nc(=O)c4cc(Cl)cc([N+](=O)[O-])c4s3)nn2)cc1 | > 64 | ≥ 64 | – |
| O=c1nc(SCc2cn(-c3cccc(Cl)c3)nn2)sc2c([N+](=O)[O-])cc(Cl)cc12 | 16 (≈ 34.3 µM) | ≥ 64 | – |

| Structure (SMILES) | MIC [1] [mg/L] | MIC [2] [mg/L] | Activity [3] |
| --- | --- | --- | --- |
| O=c1nc(SCc2cn(-c3cccc(C(F)(F)F)c3)nn2)sc2c([N+](=O)[O-])cc(Cl)cc12 | 8 (≈ 16 µM) | ≥ 64 | – |
| O=c1nc(SCc2cn(-c3cccc([N+](=O)[O-])c3)nn2)sc2c([N+](=O)[O-])cc(Cl)cc12 | 32 (≈ 67.1 µM) | ≥ 64 | – |
| O=c1nc(SCc2cn(-c3ccc(F)c(Cl)c3)nn2)sc2c([N+](=O)[O-])cc(Cl)cc12 | 8 (≈ 16.5 µM) | ≥ 64 | – |
| O=c1nc(SCc2cn(-c3ccc(N4CCOCC4)c(F)c3)nn2)sc2c([N+](=O)[O-])cc(Cl)cc12 | 64 (≈ 120 µM) | ≥ 64 | – |
| N#Cc1cccc(-n2cc(CSc3nc(=O)c4cc(Cl)cc([N+](=O)[O-])c4s3)nn2)c1 | 64 (≈ 140 µM) | ≥ 64 | – |
| Cc1cccc(-n2cc(CSc3nc(=O)c4cc(Cl)cc([N+](=O)[O-])c4s3)nn2)c1 | 8 (≈ 17.9 µM) | ≥ 64 | – |
| O=c1nc(SCc2cn(-c3ccccc3Cl)nn2)sc2c([N+](=O)[O-])cc(Cl)cc12 | 32 (≈ 68.6 µM) | ≥ 64 | – |
| Cc1ccc(-n2cc(CSc3nc(=O)c4cc(Cl)cc([N+](=O)[O-])c4s3)nn2)c(C)c1 | 32 (≈ 69.6 µM) | ≥ 64 | – |
| O=c1nc(SCc2cn(-c3ccccc3F)nn2)sc2c([N+](=O)[O-])cc(Cl)cc12 | 16 (≈ 35.6 µM) | ≥ 64 | – |
| O=c1nc(SCc2cn(-c3ccc(Br)cc3)nn2)sc2c([N+](=O)[O-])cc(Cl)cc12 | 4 (≈ 7.83 µM) | ≥ 64 | – |
| O=c1nc(SCc2cn(-c3cccnc3)nn2)sc2c([N+](=O)[O-])cc(Cl)cc12 | 32 (≈ 73.9 µM) | ≥ 64 | – |
| COc1ccc(-n2cc(CSc3nc(=O)c4cc(Cl)cc([N+](=O)[O-])c4s3)nn2)cc1 | 32 (≈ 69.3 µM) | ≥ 64 | – |
| NNC(=O)c1ccncc1 [ISONIAZID] | 0.03 (≈ 0.219 µM) | – | – |
| O=c1nc(SCc2cn(-c3ccc(O)cc3)nn2)sc2c([N+](=O)[O-])cc(Cl)cc12 | 64 (≈ 143 µM) | ≥ 64 | – |
| CC[C@@H](CO)NCCN[C@@H](CC)CO [ETHAMBUTOL] | 1 (≈ 4.89 µM) | – | – |
| COc1cc(OC)cc(-n2cc(CSc3nc(=O)c4cc(Cl)cc([N+](=O)[O-])c4s3)nn2)c1 | > 64 | ≥ 64 | – |
| O=C(O)c1ccc(-n2cc(CSc3nc(=O)c4cc(Cl)cc([N+](=O)[O-])c4s3)nn2)cc1O | > 64 | ≥ 64 | – |
| CN[C@@H]1[C@H](O[C@H]2[C@H](O[C@H]3[C@H](O)[C@@H](O)[C@H](N=C(N)N)[C@@H](O)[C@@H]3N=C(N)N)O[C@@H](C)[C@]2(O)C=O)O[C@@H](CO)[C@H](O)[C@H]1O [STREPTOMYCIN] | 1 (≈ 1.72 µM) | – | – |
| O=c1nc(SCc2cn(-c3ccccc3)nn2)sc2c([N+](=O)[O-])cc(Cl)cc12 | 32 (≈ 74.1 µM) | ≥ 64 | – |
| CC(C)Oc1cccc(-n2cc(CSc3nc(=O)c4cc(Cl)cc([N+](=O)[O-])c4s3)nn2)c1 | 64 (≈ 131 µM) | ≥ 64 | – |
